The source of these data is PubChem BioAssay (NCI).

Some test systems named below: PC-3 prostate; 786-0 renal; SK-MEL-2 melanoma; NCI-H23 lung; UACC-62 melanoma; BT-549 breast; CCRF-CEM leukemia; HS 578T breast; TK-10 renal; MOLT-4 leukemia.
Holding throughout (assay): NCI anticancer screen, dose series, 48 h

Where “and” joins values, the source holds several entries; their conditions need not be identical. Identical values can stand only once.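 Five concentrations, 48 hours, 96-well plates. GI50: concentration for 50% inhibition of growth. The concentration for full growth arrest is given as TGI.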

Turning to `CN(C)CCCNc1ccc2nnn3c4ccc(O)cc4c(=O)c1c23`, the TGI is 17.5 µM with PC-3 prostate; 16.9 µM with 786-0 renal; 26.3 µM with SK-MEL-2 melanoma; 18.3 µM with NCI-H23 lung; 23.7 µM in the test on UACC-62 melanoma; 33.9 µM with BT-549 breast. Moreover, the TGI in the test with CCRF-CEM leukemia came to 38.2 µM; in the test with HS 578T breast it was 13.3 µM; in the test on TK-10 renal, 19.4 µM; in the test on MOLT-4 leukemia it was 9.3 µM.
`O=C(CCN1CCN2c3ccccc3CCC2C1)c1ccc(F)cc1` (stereo not given): the TGI was more than 100 µM in the test with PC-3 prostate; 43.6 µM in the test with 786-0 renal; 53.3 µM in the test on SK-MEL-2 melanoma; more than 100 µM in the test with NCI-H23 lung; more than 100 µM with UACC-62 melanoma; 50 µM with BT-549 breast. The TGI in the test on CCRF-CEM leukemia is more than 100 µM; in the test with HS 578T breast, more than 100 µM; in the test with TK-10 renal, 66 µM; in the test on MOLT-4 leukemia it was more than 100 µM.
For `O=C1c2c(O)cccc2-c2nn(CCNCCO)c3ccc(NCCNCCO)c1c23`, the TGI in the test on PC-3 prostate stood at 2.16 µM; with 786-0 renal it was 0.895 µM; with SK-MEL-2 melanoma, 1.38 µM; in the test on NCI-H23 lung, 0.592 µM; in the test on UACC-62 melanoma, 0.344 µM; in the test with BT-549 breast, 1.42 µM. Further, the TGI came to 0.0631 µM in the test with CCRF-CEM leukemia, 0.535 µM in the test with HS 578T breast, 7.08 µM in the test with TK-10 renal and 0.086 µM in the test with MOLT-4 leukemia.
With `C=C(C)CC1(O[Si](C)(C)C)C(=O)C(OCC)=C1OCC` (stereo not given), the TGI in the test on PC-3 prostate, in the test on 786-0 renal, in the test on SK-MEL-2 melanoma, in the test with NCI-H23 lung, in the test with UACC-62 melanoma and with BT-549 breast was more than 100 µM in each case. In addition, the TGI with CCRF-CEM leukemia, in the test on HS 578T breast, in the test with TK-10 renal and in the test on MOLT-4 leukemia was more than 100 µM throughout.
As to `O=C(c1cccs1)N1CCN(C(=O)c2cccs2)C1=S`, the TGI turned out to be 15.6 µM in the test on PC-3 prostate; 12.4 µM with 786-0 renal; 28.3 µM in the test with SK-MEL-2 melanoma; 32.1 µM in the test on NCI-H23 lung; 16.6 µM in the test with UACC-62 melanoma; 14.9 µM in the test on BT-549 breast. In addition, the TGI with CCRF-CEM leukemia was 6.87 µM; in the test with HS 578T breast, more than 100 µM; with TK-10 renal it was 19 µM; in the test on MOLT-4 leukemia, 8.18 µM.
For `C#CCn1c(=O)c(C)cn(/C(=C\C(=O)OCC)C(=O)OCC)c1=O`, the TGI was 27.6 µM in the test on PC-3 prostate; more than 100 µM in the test on 786-0 renal; 32.8 µM with SK-MEL-2 melanoma; 27.3 µM in the test with NCI-H23 lung; 23 µM with UACC-62 melanoma; 22.8 µM in the test on BT-549 breast. Moreover, the TGI in the test with CCRF-CEM leukemia was 8 µM; in the test with HS 578T breast, 62 µM; in the test with TK-10 renal it was 3.44 µM; in the test with MOLT-4 leukemia, more than 26.5 µM. In addition, in the test with CCRF-CEM leukemia, the GI50 was 0.7 µM.
Regarding `CCCCCCCCCCCCCCCCCCNc1nc(=O)n(C2CC(O)C(COP(=O)(O)O)O2)cc1F` (stereo not given), the TGI in the test on PC-3 prostate, in the test with 786-0 renal, in the test with SK-MEL-2 melanoma, with NCI-H23 lung, in the test with UACC-62 melanoma and in the test on BT-549 breast was more than 100 µM in each case. Moreover, the TGI is 81.2 µM with CCRF-CEM leukemia, more than 100 µM with HS 578T breast, more than 100 µM with TK-10 renal and more than 96.1 µM in the test on MOLT-4 leukemia.
On to `CC1=C2C(=CO[C@H](C)[C@H]2C)C(=O)C(C(=O)O)=C1O`, for which the TGI is more than 85.3 µM in the test with PC-3 prostate; 62.7 µM with 786-0 renal; 48.1 µM and 37.5 µM in the test on SK-MEL-2 melanoma; 71.4 µM and 58.4 µM in the test with NCI-H23 lung; 85.6 µM and 40.4 µM with UACC-62 melanoma; 37.1 µM in the test with BT-549 breast. The TGI in the test with CCRF-CEM leukemia was > 88.7 µM and 45.9 µM; in the test with HS 578T breast, 96.4 µM; in the test on TK-10 renal it was 63.7 µM; in the test with MOLT-4 leukemia it was 40 µM and > 93.6 µM. Further, the GI50 was 18.7 µM in the test on SK-MEL-2 melanoma, 24.1 µM in the test on NCI-H23 lung, 27.7 µM in the test with CCRF-CEM leukemia and 34.1 µM in the test on MOLT-4 leukemia.
`C=C(C)[C@H]1C2=CC(C)=C(O2)[C@@H](O[C@@H]2c3oc(cc3C)[C@H](C(=C)C)[C@H]3C=C(CC[C@H]2C(=C)C)C(=O)O3)[C@H](C(=C)C)CCC2=C[C@H]1OC2=O`: the TGI with PC-3 prostate, in the test on 786-0 renal, with SK-MEL-2 melanoma, in the test with NCI-H23 lung, in the test on UACC-62 melanoma and in the test on BT-549 breast was more than 100 µM in each case. Also, the TGI in the test on CCRF-CEM leukemia, in the test on HS 578T breast, with TK-10 renal and in the test on MOLT-4 leukemia was more than 100 µM throughout.
In the case of `O=C(N/N=C/C=C/c1ccccc1)c1ccccc1Nc1ccccc1C(=O)N/N=C/C=C/c1ccccc1`, the TGI with PC-3 prostate, in the test on 786-0 renal, in the test with SK-MEL-2 melanoma, with NCI-H23 lung, in the test on UACC-62 melanoma and in the test on BT-549 breast was more than 100 µM throughout. The TGI with CCRF-CEM leukemia, in the test on HS 578T breast, in the test on TK-10 renal and in the test with MOLT-4 leukemia was more than 100 µM each time.
Turning to `CC(Oc1ccccc1Cl)C(=O)NN1C(=O)CSC1c1ccccc1` (stereo not given), the TGI with PC-3 prostate, in the test with 786-0 renal, with SK-MEL-2 melanoma, with NCI-H23 lung, with UACC-62 melanoma and in the test on BT-549 breast was more than 100 µM in each case. The TGI with CCRF-CEM leukemia, in the test on HS 578T breast, in the test with TK-10 renal and with MOLT-4 leukemia was more than 100 µM in each case.
As for `N#Cc1cc2c(n(C3OC(CO)C(O)C(O)C3O)c1=S)CCCCCC2` (stereo not given), the TGI with PC-3 prostate, with 786-0 renal, in the test with SK-MEL-2 melanoma, in the test with NCI-H23 lung, in the test with UACC-62 melanoma and in the test on BT-549 breast was more than 100 µM each time. Besides, the TGI with CCRF-CEM leukemia, in the test with HS 578T breast, in the test with TK-10 renal and in the test on MOLT-4 leukemia was more than 100 µM throughout.
As for `NN=C(CC(O)(C(F)(F)Cl)C(F)(F)Cl)CC(O)(C(F)(F)Cl)C(F)(F)Cl`, the TGI in the test with PC-3 prostate, with 786-0 renal, in the test on SK-MEL-2 melanoma, with NCI-H23 lung, with UACC-62 melanoma and in the test on BT-549 breast was more than 10 µM each time. Further, the TGI in the test on CCRF-CEM leukemia, with HS 578T breast, in the test with TK-10 renal and with MOLT-4 leukemia was more than 10 µM in each case.
On to `O=C(Nc1ccccc1C(=O)NCc1ccccc1)/C(=C/c1ccccc1)NC(=O)c1ccccc1`, for which the TGI in the test with PC-3 prostate, in the test with 786-0 renal, with SK-MEL-2 melanoma, in the test with NCI-H23 lung, in the test on UACC-62 melanoma and with BT-549 breast was more than 100 µM in each case. Also, the TGI with CCRF-CEM leukemia, in the test on HS 578T breast, with TK-10 renal and in the test on MOLT-4 leukemia was more than 100 µM throughout.
For `C=C=C(CC(CC(=C)Br)(C(=O)OC)C(=O)OC)S(=O)(=O)c1ccccc1`, the TGI was 4.31 µM in the test with PC-3 prostate; 2.36 µM in the test with 786-0 renal; 8.22 µM with SK-MEL-2 melanoma; 6.33 µM in the test with NCI-H23 lung; 3.11 µM in the test on UACC-62 melanoma; 3.18 µM in the test with BT-549 breast. In addition, the TGI was more than 100 µM in the test with CCRF-CEM leukemia, 6.37 µM in the test on HS 578T breast, 4.8 µM in the test with TK-10 renal and more than 100 µM in the test with MOLT-4 leukemia.
On to `O=[N+]([O-])c1cccc(N=Nc2c(O)c(S(=O)(=O)O)cc3cc(S(=O)(=O)O)ccc23)c1`, for which the TGI with PC-3 prostate, in the test with 786-0 renal, with SK-MEL-2 melanoma, in the test with NCI-H23 lung, with UACC-62 melanoma and in the test with BT-549 breast was more than 100 µM each time. Also, the TGI in the test on CCRF-CEM leukemia, in the test with HS 578T breast, with TK-10 renal and in the test with MOLT-4 leukemia was more than 100 µM throughout.
Regarding `CC1(C)CC(=O)C2(CC(CSc3ccccc3)C(CS(=O)(=O)c3ccccc3)C2)C(=O)C1` (stereo not given), the TGI in the test with PC-3 prostate, in the test on 786-0 renal, with SK-MEL-2 melanoma, in the test with NCI-H23 lung, in the test with UACC-62 melanoma and in the test on BT-549 breast was more than 100 µM throughout. Further, the TGI in the test with CCRF-CEM leukemia, with HS 578T breast, in the test with TK-10 renal and in the test with MOLT-4 leukemia was more than 100 µM throughout.
For the compound `CN1C(=O)C(O)C[C@@H]1c1ccccc1` (stereo not given in full), the TGI in the test on PC-3 prostate, with 786-0 renal, in the test with SK-MEL-2 melanoma, with NCI-H23 lung, with UACC-62 melanoma and with BT-549 breast was more than 100 µM in each case. Further, the TGI in the test on CCRF-CEM leukemia, in the test on HS 578T breast, in the test on TK-10 renal and in the test with MOLT-4 leukemia was more than 100 µM each time.
Turning to `C=CCOn1c(C=C)nc2ccc(C)cc21`, the TGI in the test with PC-3 prostate came out at 31 µM; with 786-0 renal, 32.9 µM; in the test with SK-MEL-2 melanoma, 30.6 µM; in the test on NCI-H23 lung, 46 µM; in the test on UACC-62 melanoma, 26.8 µM; in the test on BT-549 breast, 41.2 µM. In addition, the TGI was 7.21 µM with CCRF-CEM leukemia, more than 100 µM with HS 578T breast, 32.4 µM with TK-10 renal and 68.8 µM in the test on MOLT-4 leukemia.
